Experimental findings from US5604234A, “Substituted thiol macrolactam immunomodulators” (Abbott Laboratories, priority 1995, dated 1997) are described below.

Assay [1] deals with human mixed lymphocyte reaction (MLR). Briefly: human mixed lymphocyte reaction (MLR) assay, immunosuppressant activity. In kind it is cell-based. The note with it: Table 2. On the procedure: The immunosuppressant activity of the compounds of the present invention was determined using the human mixed lymphocyte reaction (MLR) assay described by Kino, T. et al. in Transplantation Proceedings, XIX(5):36-39,Suppl. 6 (1987).

For assay [2] the test system is unchanged. Briefly: human mixed lymphocyte reaction (MLR), serum free variation. In kind it is cell-based. To be noted: Homo sapiens, Lymphocyte, serum-free medium AIM V, Table 3. An outline of the steps:
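Serum-free variant of the human MLR: cultured in AIM V medium in place of RPMI 1640 with 10% heat-inactivated FBS. Responder and stimulator PBMCs, pooled from four donors, at final 5×10^5/mL and 2×10^6/mL respectively.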

Broadly, the IC50 is the concentration that inhibits the measured activity by half. High values mean lower potency, low ones higher potency. In assay [1] (Homo sapiens, Lymphocyte), `CC[C@@H]1/C=C(\C)C[C@H](C)C[C@H](OC)[C@H]2O[C@@](O)(C(=O)C(=O)N3CCCC[C@H]3C(=O)O[C@H](/C(C)=C/[C@@H]3CC[C@H]([S+](C)[O-])[C@H](OC)C3)[C@H](C)[C@@H](O)CC1=O)[C@H](C)C[C@@H]2OC` (single isomer, unassigned) [Example 127] displayed an IC50 of 12.5 nM.

As for `CC[C@@H]1/C=C(\C)C[C@H](C)C[C@H](OC)[C@H]2O[C@@](O)(C(=O)C(=O)N3CCCC[C@H]3C(=O)O[C@H](/C(C)=C/[C@@H]3CC[C@H]([S+]([O-])c4ccccc4)[C@H](OC)C3)[C@H](C)[C@@H](O)CC1=O)[C@H](C)C[C@@H]2OC` (single isomer, unassigned) [Example 133A], in assay [1] (Homo sapiens, Lymphocyte), inhibition was half-maximal at 6.2 nM (IC50).

The compound `CC[C@@H]1/C=C(\C)C[C@H](C)C[C@H](OC)[C@H]2O[C@@](O)(C(=O)C(=O)N3CCCC[C@H]3C(=O)O[C@H](/C(C)=C/[C@@H]3CC[C@H]([S+]([O-])c4ccccc4)[C@H](OC)C3)[C@H](C)[C@@H](O)CC1=O)[C@H](C)C[C@@H]2OC` (single isomer, unassigned) [Example 133B] yielded an IC50 in assay [1] of 6.5 nM.

As for `CCC1C=C(C)CC(C)CC(OC)C2OC(O)(C(=O)C(=O)N3CCCCC3C(=O)OC(C(C)=CC3CCC(SCCC(=O)OCc4ccccc4)C(OC)C3)C(C)C(O)CC1=O)C(C)CC2OC` (stereo not drawn) [Example 18], in assay [1] (Homo sapiens, Lymphocyte), the IC50 is 18.5 nM.

In turn, `CC[C@@H]1/C=C(\C)C[C@H](C)C[C@H](OC)[C@H]2O[C@@](O)(C(=O)C(=O)N3CCCC[C@H]3C(=O)O[C@H](/C(C)=C/[C@@H]3CC[C@H](SC)[C@H](OC)C3)[C@H](C)[C@@H](O)CC1=O)[C@H](C)C[C@@H]2OC` [Example 90] registered an IC50 in assay [1] (Homo sapiens, Lymphocyte) of 0.75 nM.

For the compound `CC[C@@H]1/C=C(\C)C[C@H](C)C[C@H](OC)[C@H]2O[C@@](O)(C(=O)C(=O)N3CCCC[C@H]3C(=O)O[C@H](/C(C)=C/[C@@H]3CC[C@H](SC(=O)C(=O)OC)[C@H](OC)C3)[C@H](C)[C@@H](O)CC1=O)[C@H](C)C[C@@H]2OC` [Example 111], the IC50 in assay [2] was found to be 4.1 nM.

For `CC[C@@H]1/C=C(\C)C[C@H](C)C[C@H](OC)[C@H]2O[C@@](O)(C(=O)C(=O)N3CCCC[C@H]3C(=O)O[C@H](/C(C)=C/[C@@H]3CC[C@H](SC(=O)c4ccccc4OC(C)=O)[C@H](OC)C3)[C@H](C)[C@@H](O)CC1=O)[C@H](C)C[C@@H]2OC` [Example 112], in assay [2], the IC50 was 0.49 nM.

`CC[C@@H]1/C=C(\C)C[C@H](C)C[C@H](OC)[C@H]2O[C@@](O)(C(=O)C(=O)N3CCCC[C@H]3C(=O)O[C@H](/C(C)=C/[C@@H]3CC[C@H](SC(=O)c4cccnc4)[C@H](OC)C3)[C@H](C)[C@@H](O)CC1=O)[C@H](C)C[C@@H]2OC` [Example 113]: in assay [2], the IC50 amounted to 0.15 nM.

As to `CC[C@@H]1/C=C(\C)C[C@H](C)C[C@H](OC)[C@H]2O[C@@](O)(C(=O)C(=O)N3CCCC[C@H]3C(=O)O[C@H](/C(C)=C/[C@@H]3CC[C@H](SC(=O)c4ccncc4)[C@H](OC)C3)[C@H](C)[C@@H](O)CC1=O)[C@H](C)C[C@@H]2OC` [Example 114], in assay [2], the 50% inhibitory concentration (IC50) was found to be 0.14 nM.

In turn, `CC[C@@H]1/C=C(\C)C[C@H](C)C[C@H](OC)[C@H]2O[C@@](O)(C(=O)C(=O)N3CCCC[C@H]3C(=O)O[C@H](/C(C)=C/[C@@H]3CC[C@H](SC(=O)CNC(C)=O)[C@H](OC)C3)[C@H](C)[C@@H](O)CC1=O)[C@H](C)C[C@@H]2OC` [Example 115] displayed an IC50 in assay [2] of 0.02 nM.

In assay [2], `CC[C@@H]1/C=C(\C)C[C@H](C)C[C@H](OC)[C@H]2O[C@@](O)(C(=O)C(=O)N3CCCC[C@H]3C(=O)O[C@H](/C(C)=C/[C@@H]3CC[C@H](SC(=O)CCNC(C)=O)[C@H](OC)C3)[C@H](C)[C@@H](O)CC1=O)[C@H](C)C[C@@H]2OC` [Example 116] displayed an IC50 of 3.1 nM.

In turn, `CC[C@@H]1/C=C(\C)C[C@H](C)C[C@H](OC)[C@H]2O[C@@](O)(C(=O)C(=O)N3CCCC[C@H]3C(=O)O[C@H](/C(C)=C/[C@@H]3CC[C@H](SC(=O)c4ccccc4NC(C)=O)[C@H](OC)C3)[C@H](C)[C@@H](O)CC1=O)[C@H](C)C[C@@H]2OC` [Example 118] came in with an IC50 in assay [2] of 2.5 nM.

`CC[C@@H]1/C=C(\C)C[C@H](C)C[C@H](OC)[C@H]2O[C@@](O)(C(=O)C(=O)N3CCCC[C@H]3C(=O)O[C@H](/C(C)=C/[C@@H]3CC[C@H](SC(=O)c4ccccc4C#N)[C@H](OC)C3)[C@H](C)[C@@H](O)CC1=O)[C@H](C)C[C@@H]2OC` [Example 119] had an IC50 in assay [2] of 3 nM.

In the case of `CC[C@@H]1/C=C(\C)C[C@H](C)C[C@H](OC)[C@H]2O[C@@](O)(C(=O)C(=O)N3CCCC[C@H]3C(=O)O[C@H](/C(C)=C/[C@@H]3CC[C@H](SC(=O)c4ccccn4)[C@H](OC)C3)[C@H](C)[C@@H](O)CC1=O)[C@H](C)C[C@@H]2OC` [Example 120], half-maximal inhibition in assay [2] (IC50) was put at 1.2 nM.

Take `CC[C@@H]1/C=C(\C)C[C@H](C)C[C@H](OC)[C@H]2O[C@@](O)(C(=O)C(=O)N3CCCC[C@H]3C(=O)O[C@H](/C(C)=C/[C@@H]3CC[C@H](SC(=O)CNC(N)=O)[C@H](OC)C3)[C@H](C)[C@@H](O)CC1=O)[C@H](C)C[C@@H]2OC` [Example 121]: in assay [2], the IC50 is 2.6 nM.

As for `CC[C@@H]1/C=C(\C)C[C@H](C)C[C@H](OC)[C@H]2O[C@@](O)(C(=O)C(=O)N3CCCC[C@H]3C(=O)O[C@H](/C(C)=C/[C@@H]3CC[C@H](SC(=O)[C@@H](NC(C)=O)[C@@H](C)O)[C@H](OC)C3)[C@H](C)[C@@H](O)CC1=O)[C@H](C)C[C@@H]2OC` [Example 122], the 50% inhibitory concentration (IC50) in assay [2] was determined as 1.5 nM.

Consider `CC[C@@H]1/C=C(\C)C[C@H](C)C[C@H](OC)[C@H]2O[C@@](O)(C(=O)C(=O)N3CCCC[C@H]3C(=O)O[C@H](/C(C)=C/[C@@H]3CC[C@H](SC(=O)[C@H](C)O)[C@H](OC)C3)[C@H](C)[C@@H](O)CC1=O)[C@H](C)C[C@@H]2OC` [Example 123], for which the IC50 in assay [2] stood at 2.8 nM.

The compound `CC[C@@H]1/C=C(\C)C[C@H](C)C[C@H](OC)[C@H]2O[C@@](O)(C(=O)C(=O)N3CCCC[C@H]3C(=O)O[C@H](/C(C)=C/[C@@H]3CC[C@H](SC(=O)[C@@H](C)O)[C@H](OC)C3)[C@H](C)[C@@H](O)CC1=O)[C@H](C)C[C@@H]2OC` [Example 124] yielded an IC50 in assay [2] of 2 nM.

As to `CC[C@@H]1/C=C(\C)C[C@H](C)C[C@H](OC)[C@H]2O[C@@](O)(C(=O)C(=O)N3CCCC[C@H]3C(=O)O[C@H](/C(C)=C/[C@@H]3CC[C@H](SC(=O)CO)[C@H](OC)C3)[C@H](C)[C@@H](O)CC1=O)[C@H](C)C[C@@H]2OC` [Example 125], the 50% inhibitory concentration (IC50) in assay [2] is 3.5 nM.

`CC[C@@H]1/C=C(\C)C[C@H](C)C[C@H](OC)[C@H]2O[C@@](O)(C(=O)C(=O)N3CCCC[C@H]3C(=O)O[C@H](/C(C)=C/[C@@H]3CC[C@H]([S+](C)[O-])[C@H](OC)C3)[C@H](C)[C@@H](O)CC1=O)[C@H](C)C[C@@H]2OC` (stereo partly drawn) [Example 128] showed an IC50 in assay [1] (Homo sapiens, Lymphocyte) of 15.5 nM.

In assay [1] (Homo sapiens, Lymphocyte), `CC[C@@H]1/C=C(\C)C[C@H](C)C[C@H](OC)[C@H]2O[C@@](O)(C(=O)C(=O)N3CCCC[C@H]3C(=O)O[C@H](/C(C)=C/[C@@H]3CC[C@H](S(C)(=O)=O)[C@H](OC)C3)[C@H](C)[C@@H](O)CC1=O)[C@H](C)C[C@@H]2OC` [Example 129] displayed a concentration for half-maximal inhibition (IC50) of 1.15 nM.

Consider `CC[C@@H]1/C=C(\C)C[C@H](C)C[C@H](OC)[C@H]2O[C@@](O)(C(=O)C(=O)N3CCCC[C@H]3C(=O)O[C@H](/C(C)=C/[C@@H]3CC[C@H](SCSC)[C@H](OC)C3)[C@H](C)[C@@H](O)CC1=O)[C@H](C)C[C@@H]2OC` [Example 130], for which the IC50 in assay [1] (Homo sapiens, Lymphocyte) came out at 0.58 nM.

With `CC[C@@H]1/C=C(\C)C[C@H](C)C[C@H](OC)[C@H]2O[C@@](O)(C(=O)C(=O)N3CCCC[C@H]3C(=O)O[C@H](/C(C)=C/[C@@H]3CC[C@H](SCOC)[C@H](OC)C3)[C@H](C)[C@@H](O)CC1=O)[C@H](C)C[C@@H]2OC` [Example 131], 5.2 nM corresponded to half-maximal inhibition in assay [1] (Homo sapiens, Lymphocyte) (IC50).

`CC[C@@H]1/C=C(\C)C[C@H](C)C[C@H](OC)[C@H]2O[C@@](O)(C(=O)C(=O)N3CCCC[C@H]3C(=O)O[C@H](/C(C)=C/[C@@H]3CC[C@H](Sc4ccccc4)[C@H](OC)C3)[C@H](C)[C@@H](O)CC1=O)[C@H](C)C[C@@H]2OC` [Example 132] showed an IC50 in assay [1] (Homo sapiens, Lymphocyte) of 3.4 nM.
